In patent publication US8592383B2, “Cycloalkyl-fused tetrahydroquinolines as CRTH2 receptor modulators” (Merck Sharp & Dohme Corp., priority 2011, dated 2013) one finds Ki data, which are given here for 19 molecules.

One test concerns the target T1, hCRTH2 (Homo sapiens, UniProt Q9Y5Y4).
T1 sequence (Q9Y5Y4 1-395): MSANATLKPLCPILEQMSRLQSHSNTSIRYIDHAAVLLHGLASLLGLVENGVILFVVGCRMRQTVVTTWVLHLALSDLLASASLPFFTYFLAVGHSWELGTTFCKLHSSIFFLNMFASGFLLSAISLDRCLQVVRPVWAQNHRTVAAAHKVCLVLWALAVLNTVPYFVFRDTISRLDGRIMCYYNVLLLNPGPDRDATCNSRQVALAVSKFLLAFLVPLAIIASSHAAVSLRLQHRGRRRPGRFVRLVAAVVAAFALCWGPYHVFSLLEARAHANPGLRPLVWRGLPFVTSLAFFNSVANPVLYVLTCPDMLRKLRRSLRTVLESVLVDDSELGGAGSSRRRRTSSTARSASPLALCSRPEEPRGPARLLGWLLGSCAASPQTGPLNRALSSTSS
Test: not given
On the set-up: expressed in transfected cells; host or cells: HEK (human embryonic kidney) cells expressing hCRTH2. Conditions: Radioligand Binding Assay B; Table B, rated A-D. How it is done:
The filters were then washed with 4 mL of the same buffer and residual radioligand bound to the filter was determined by liquid scintillation counting following equilibration in 25 μl Ultima Gold F™ (Unifilter) (Packard).
As for `O=C(O)COC(=O)N(C1CC1)[C@@H]1c2ccccc2N(C(=O)c2ccccc2)[C@@H]2CCC[C@@H]21` (racemic) [compound 30, ({Cyclopropyl[cis,cis-4-(phenylcarbonyl)-2,3,3a,4,9,9a-hexahydro-1H-cyclopenta[b]quinolin-9-yl]carbamoyl}oxy)acetic acid], the inhibition constant (Ki) (in general, the equilibrium dissociation constant of an inhibitor or competing ligand from its target) lay within 5.1 to 20 nM.

In turn, `O=C(O)COC(=O)N(C1CC1)[C@@H]1c2ccccc2N(C(=O)c2ccc(OC(F)(F)F)cc2)[C@@H]2CCC[C@@H]21` (racemic) [compound 31, ({Cyclopropyl[cis,cis-4-{[4-(trifluoromethoxy)phenyl]carbonyl}-2,3,3a,4,9,9a-hexahydro-1H-cyclopenta[b]quinolin-9-yl]carbamoyl}oxy)acetic acid] displayed a Ki of 5.1 to 20 nM.

Take `O=C(O)CCC(=O)N(C1CC1)[C@@H]1c2ccccc2N(c2nnc(Cc3ccccc3)o2)[C@@H]2CCC[C@@H]21` (racemic) [compound 36, 4-{[cis-4-(5-Benzyl-1,3,4-oxadiazol-2-yl)-2,3,3a,4,9,9a-hexahydro-1H-cyclopenta[b]quinolin-9-yl](cyclopropyl)amino}-4-oxobutanoic acid]: the inhibition constant (Ki) was in the range of 20.1 to 200 nM.

With `O=C(O)COC(=O)N(C1CC1)C1c2ccccc2N(c2nnc(-c3ccccc3)o2)C2CCCC21` (racemic) [compound 37, ({Cyclopropyl[cis,cis-4-(5-phenyl-1,3,4-oxadiazol-2-yl)-2,3,3a,4,9,9a-hexahydro-1H-cyclopenta[b]quinolin-9-yl]carbamoyl}oxy)acetic acid], the Ki was in the range of 5.1 to 20 nM.

For the molecule `CCN(c1nc(C(=O)O)cs1)[C@@H]1c2ccccc2N(C(=O)OCc2ccccc2)[C@@H]2CCC[C@H]12` (racemic) [compound 39, 2-[{cis,cis-4-[(Benzyloxy)carbonyl]-2,3,3a,4,9,9a-hexahydro-1H-cyclopenta[b]quinolin-9-yl}(ethyl)amino]-1,3-thiazole-4-carboxylic acid], the Ki lay within 20.1 to 200 nM.

The target in another test is T1, hCRTH2. Nature of the test: biochemical. Conditions: Ki (nM).
Experimental: Competing ligands were diluted in dimethylsulfoxide (Me2SO) that was kept constant at 1% (v/v) of the final incubation volume. The reaction was initiated by the addition of 8-20 g of membrane protein prepared from a human embryonic kidney (HEK)-hCRTH2 cell line. Total and non-specific binding were determined in the absence and the presence of 10 μM PGD2, respectively. Under these conditions, specific binding (total minus non-specific) of the radioligand to the receptor reached equilibrium within 50 min and was stable up to 180 min. The reaction was routinely conducted for 60 min at room temperature and terminated by rapid filtration through prewetted (0.3% polyethyleneimine) 96-well printed Filtermate™ (Wallac) using a Tomtec® harvester (Hamden, Conn.). After washing with cold buffer, the filter was dried for 2 minutes in microwave, and Meltilex Scintillator sheet (Wallac) was melted on for 2 min.
For `O=C(O)CCC(=O)N(C1CC1)[C@@H]1c2ccccc2N(C(=O)OCc2ccc(F)cc2)[C@@H]2CCC[C@@H]21` (single isomer, unassigned) [compound 22, 4-[(4-Fluorophenyl)methyl]cis,cis-[(3-carboxy-1-oxopropyl)cyclopropylamino]-1,2,3,3a,9,9a-hexahydro-4H-cyclopenta[b]quinoline-4-carboxylate], the Ki was 5.1 to 20 nM.

The test is the same for the next values; noted with them: Ki, Radioligand Binding Assay A; 3.0 nM [3H]PGD2, HEK-hCRTH2 membranes.
Take `O=C(O)CCC(=O)N(C1CC1)C1c2ccccc2N(C(=O)c2ccco2)C2CCCC21` (racemic) [17BL, 4-(cyclopropyl(cis,cis-4-(furan-2-carbonyl)-2,3,3a,4,9,9a-hexahydro-1H-cyclopenta[b]quinolin-9-yl)amino)-4-oxobutanoic acid]: the inhibition constant (Ki) turned out to be 36 nM.

With `O=C(O)c1ccccc1C(=O)N(C1CC1)[C@@H]1c2ccccc2N(C(=O)c2ccc(OC(F)(F)F)cc2)[C@@H]2CCC[C@@H]21` (racemic) [17Ci, 2-[[cyclopropyl[cis,cis-2,3,3a,4,9,9a-hexahydro-4-[4-(trifluoromethoxy)benzoyl]-1H-cyclopenta[b]quinolin-9-yl]amino]carbonyl]benzoic acid], the affinity, expressed as Ki, was 838 nM.

`CN(C(=O)CCC(=O)O)C1c2ccccc2N(C(=O)OCc2ccccc2)C2CCCC12` (racemic) [17U, 4-(phenylmethyl) cis,cis-9-[(3-carboxy-1-oxopropyl)methylamino]-1,2,3,3a,9,9a-hexahydro-4H-cyclopenta[b]quinoline-4-carboxylate] displayed a Ki of 605 nM.

With `CCOc1cnc(-c2ccc(C(=O)N3c4ccccc4C(N(C(=O)CCC(=O)O)C4CC4)C4CCCC43)cc2)nc1` (racemic) [18P, 4-[cyclopropyl[cis,cis-4-[4-(5-ethoxy-2-pyrimidinyl)benzoyl]-2,3,3a,4,9,9a-hexahydro-1H-cyclopenta[b]quinolin-9-yl]amino]-4-oxobutanoic acid], the Ki stood at 28.5 nM.

The molecule `O=C(O)CCC(=O)N(C1CC1)C1c2ccccc2N(C(=O)c2ccc(-c3cncs3)cc2)C2CCCC21` (racemic) [18o, 4-[cyclopropyl[cis,cis-2,3,3a,4,9,9a-hexahydro-4-[4-(5-thiazolyl)benzoyl]-1H-cyclopenta[b]quinolin-9-yl]amino]-4-oxobutanoic acid] came in with a Ki of 9.8 nM.

`O=C(O)CCCN(C1CC1)[C@@H]1c2ccccc2N(C(=O)c2ccc(OC(F)(F)F)cc2)[C@@H]2CCC[C@@H]21` (racemic) [compound 44, 4-[Cyclopropyl[cis,cis-2,3,3a,4,9,9a-hexahydro-4-[4-(trifluoromethoxy)benzoyl]-1H-cyclopenta[b]quinolin-9-yl]amino]butanoic acid] displayed a Ki of 2.54 nM.

Consider `O=C(O)CCC(=O)N(C1CC1)C1c2ccc(Cl)cc2N(C(=O)OCc2ccccc2)C2CCCC21` (single isomer, unassigned) [9A, 4-(phenylmethyl) cis,cis-[(3-carboxy-1-oxopropyl)cyclopropylamino]-6-chloro-1,2,3,3a,9,9a-hexahydro-4H-cyclopenta[b]quinoline-4-carboxylate], for which the Ki stood at 4.7 nM.

Turning to `O=C(O)CCC(=O)N(C1CCC1)C1c2ccc(Cl)cc2N(C(=O)c2ccc(F)c(F)c2)C2CCCC21` (single isomer, unassigned) [17Co, 4-[[cis,cis-6-chloro-4-(3,4-difluorobenzoyl)-2,3,3a,4,9,9a-hexahydro-1H-cyclopenta[b]quinolin-9-yl]cyclobutylamino]-4-oxobutanoic acid], affinity was put at a Ki of 10.9 nM.

As to `O=C(O)CCC(=O)N(C1CCC1)[C@@H]1c2ccccc2N(C(=O)c2cccc(OC(F)(F)F)c2)[C@@H]2CCC[C@@H]21` (single isomer, unassigned) [17DA, 4-[cyclobutyl[cis,cis-2,3,3a,4,9,9a-hexahydro-4-[3-(trifluoromethoxy)benzoyl]-1H-cyclopenta[b]quinolin-9-yl]amino]-4-oxobutanoic acid], affinity was put at a Ki of 34.2 nM.

For `CCN(C(=O)CCC(=O)O)C1c2ccccc2N(C(=O)OCc2cc(F)cc(F)c2)C2CCCC12` (single isomer, unassigned) [22A, 4-[(3,5-difluorophenyl)methyl] cis, cis-[(3-carboxy-1-oxopropyl)ethylamino]-1,2,3,3a,9,9a-hexahydro-4H-cyclopenta[b]quinoline-4-carboxylate], the inhibitory constant (Ki) is 1080 nM.

In the case of `O=C(O)CCC(=O)N(C1CC1)C1c2ccc(Cl)cc2N(C(=O)c2ccc(OC(F)(F)F)cc2)C2CCC21` (single isomer, unassigned) [27K, 4-[[cis, cis-5-chloro-1,2,2a,3,8,8a-hexahydro-3-[4-(trifluoromethoxy)benzoyl]cyclobuta[b]quinolin-8-yl]cyclopropylamino]-4-oxobutanoic acid], the Ki came to 1.5 nM.

The molecule `O=C(O)COC(=O)N(C1CC1)C1c2ccccc2N(c2nnc(Cc3ccc(OC(F)(F)F)cc3)o2)C2CCCC21` (single isomer, unassigned) [38G, [[[cyclopropyl[cis,cis-2,3,3a,4,9,9a-hexahydro-4-[5-[[4-(trifluoromethoxy)phenyl]methyl]-1,3,4-oxadiazol-2-yl]-1H-cyclopenta[b]quinoline-9-yl]amino]carbonyl]oxy]acetic acid] came in with a Ki of 638 nM.

In turn, `Cc1ccc2c(c1)C(N(C(=O)CCC(=O)O)C1CC1)C1CCCC1N2C(=O)c1ccc(OC(F)(F)F)cc1` (single isomer, unassigned) [compound 51, 4-[Cyclopropyl[cis,cis-2,3,3a,4,9,9a-hexahydro-7-methyl-4-[4-(trifluoromethoxy)benzoyl]-1H-cyclopenta[b]quinolin-9-yl]amino]-4-oxobutanoic acid] registered an inhibition constant Ki of 6.9 nM.
